Here are results for four sequences from patent US10668125B2, “Peptide having highly-shifted accumulation to pancreatic cancer cells and tissues, and use of said peptide” (Niigata University, priority 2015, dated 2020).

Data set [1] relates to various pancreatic cancer cells (BxPC3, PK-8, PL45, AsPC1, Panc1). The data set can be described thus: Test Example 1: accumulation of peptide to pancreatic cancer cells (fluorescence microscope). Format: cell-based, human. The note with it: FITC-labeled peptide 2 μM, 2 hours at 37° C., FIG. 1. The protocol:
(§1) These were maintained by subculture in the laboratory by the inventors.
(§2) Pancreatic cancer cells and HPNE cells were cultured using a 5% FBS-containing CS-C medium kit. KYN-2 cells, HaCaT cells, NHDF cells, MMNK-1 cells, and Liver cells were cultured using 10% FBS-containing RPMI1640 medium. Kidney cells were cultured using a proliferation medium for normal human renal epithelial cells (RenaLife Comp Kit). NuLi-1 cells were cultured using BEGM medium (Bronchial Epithelial Growth Medium, Serum-free). TIME cells were cultured using EBM-2-MV Bullet kit (Endothelial Cell Basal Medium-2 Bullet kit).
(§3) Those cells were cultured for 2 hours at 37° C. Subsequently, the cells were washed three times with the medium in order to remove the peptide-containing medium. Subsequently, the uptake of the various peptides in the living cells was visually evaluated using an inverted type fluorescence microscope. Prior to the microscopic examination, the culture supernatant containing the peptides were removed, the cells were washed three times with 1×PBS (−), and then the cells were treated with trypsin. Adherent cells were detached and were immediately transferred into a fresh 96-well plate. The cells were resuspended in a fresh culture fluid, and then a microscopic examination was performed.

Data set [2] has as its system KYN-2 cells and normal cells originating from various tissues. The data set is described as follows: Test Example 1: accumulation of peptide to other cancer cells and normal cells (fluorescence microscope). The note with it: FITC-labeled peptide 2 μM, 2 hours at 37° C., FIG. 1. Format: cell-based, human. The protocol:
as §1, §2, §3

For data set [3], the system named is BxPC3 cells. The data set can be described thus: Test Example 1: quantitative fluorescence in BxPC3 cells relative to HPNE cells. Format: cell-based, human. The note with it: absorption into normal pancreatic duct epithelial cells (HPNE) designated as 1.0, 2 μM, 2 hours, FIG. 2B. The protocol:
as §3
The graph of FIG. 2A is a graph showing the proportions of fluorescence intensities detected in various cells, the proportions being obtained by quantitatively analyzing the fluorescence detected in the various cells to which various peptides were added in Test Example 1, and determining relative values by designating the fluorescence detected in HPNE cells, which are a human immortalized normal pancreatic duct epithelial cell line, as 1.0. […]

A further data set concerns Panc1 cells. The data set is described as follows: Test Example 2: accumulation of peptide in tissues of mouse intraperitoneally transplanted with Panc1 cells. It counts as in vivo. The note with it: NOD-SCID mice with Panc1 cells, i.v. 300 μg per 20 g body weight, 30 minutes after administration, FIG. 3A. The protocol:
(§4) NOD-SCID mice (six-week-old female mice purchased from Crea-Japan, Inc.) intraperitoneally transplanted with Panc1 cells or PK-8 cells, which are human pancreatic cancer cells, in an amount of 1×10^6 cells in each animal, were produced as human pancreatic cancer cell-transplanted mice. Thirty days after the transplantation of human pancreatic cancer cells, Peptide 1 produced in Example 1 was intravenously (i.v.) injected to the mice in an amount of 300 μg with respect to 20 g of the mouse body weight. […] In FIG. 3A and FIG. 3B, the “Bright Field” refers to images taken in the bright field, and “FITC” refers to images taken in the dark field under the conditions of green fluorescence excitation at a wavelength of 488 nm.

Another data set deals with PK-8 cells. The data set can be described thus: Test Example 2: accumulation of peptide in tissues of mouse intraperitoneally transplanted with PK-8 cells. Format: in vivo. The note with it: NOD-SCID mice with PK-8 cells, i.v. 300 μg per 20 g body weight, 30 minutes after administration, FIG. 3B. The protocol: as §4
Data set [4] deals with BxPC3 cells. The data set can be described thus: Test Example 3: accumulation of peptide in tissues of mouse with BxPC3 cells transplanted into the pancreas. It counts as in vivo. The protocol: NOD-SCID mice (six-week-old female mice purchased from Crea-Japan, Inc.) having BxPC3 cells, which are human pancreatic cancer cells, transplanted into the pancreas in an amount of 1×10^6 cells in each animal, were produced as human pancreatic cancer cell-transplanted mice. Thirty days after the transplantation of human pancreatic cancer cells, Peptide 4 produced in Example 1 was intravenously (i.v.) injected to the mice in an amount of 150 μg with respect to 20 g of the mouse body weight. […] In FIG. 4, the “Bright Field” refers to images taken in the bright field, and “FITC” refers to images taken in the dark field under the conditions of green fluorescence excitation at a wavelength of 488 nm. Furthermore, in FIG. 4, “brain” means the brain, “heart” means the heart, “kidney” means the kidney, “liver” means the liver, “lung” means the lung, “muscle” means the skeletal muscle, “pancreas” means the pancreas, “spleen” means the spleen, and “tumor” means a malignant tumor. “Surface” means the surface of various organs, and “transection” means a transverse section of various organs.
FIG. 5 is a graph showing the proportions of the fluorescence intensities detected in various tissues, the proportions being obtained by designating the fluorescence detected in normal pancreas as 1.0.

Where no end group is shown, it is not given here.

On to “RAWRQCRWR (also: FITC label, site not given here) [Peptide 3, IVV library-derived 9-amino acid residue peptide, synthesized FITC-labeled]”, for which, in data set [1], the “fluorescence detected in the various pancreatic cancer cells” value is recorded as “strong fluorescence was detected”. Moreover, the “fluorescence detected in KYN-2 cells and normal cells originating from various tissues” value (“fluorescence detected … from various tissues” below) in data set [2] is “fluorescence was hardly detected”.

For “GYRRTTPSYWRMWLR (also: FITC label, site not given here) [Peptide 1, IVV library-derived 15-amino acid residue peptide, synthesized FITC-labeled]”, the “fluorescence detected in the various pancreatic cancer cells” value in data set [1] was “strong fluorescence was detected”. The “fluorescence detected … from various tissues” value in data set [2] is “fluorescence was hardly detected”. Moreover, the “absorption ratio (S/N ratio) into BxPC3 cells” value in the data set with BxPC3 cells [3] was “about 6 times”. Also, the “fluorescence of FITC in tumor lesions and normal organs” value with Panc1 cells is “strong fluorescence of FITC was detected in the tumor and the metastatic lesions”; in the data set with PK-8 cells it was “strong fluorescence of FITC was detected in the tumor and the metastatic lesions”.

Regarding “RRPTTWHKP (also: FITC label, site not given here) [Peptide 4, IVV library-derived 9-amino acid residue peptide, synthesized FITC-labeled]”, the “fluorescence detected in the various pancreatic cancer cells” value in data set [1] is “strong fluorescence was detected”. The “fluorescence detected … from various tissues” value in data set [2] is given as “fluorescence was hardly detected”. Moreover, the “fluorescence of FITC in tumor lesions and normal organs” value with BxPC3 cells [4] (NOD-SCID mice with BxPC3 cells in pancreas, i.v. 150 μg per 20 g body weight, 30 minutes after administration, FIG. 4) was “strong fluorescence of FITC was detected in the tumor and the kidneys”. The “S/N ratio in the target malignant tumor” value in the data set with BxPC3 cells [4] (absorption into normal pancreas designated as 1.0, i.v. 150 μg per 20 g, 30 minutes, FIG. 5) was “about 9 times”. Further, the “S/N ratio in the kidneys” value in the data set with BxPC3 cells [4] (absorption into normal pancreas designated as 1.0, i.v. 150 μg per 20 g, 30 minutes, FIG. 5, ascribed to urinary excretion, not cell uptake) was “about 11 times”.

Turning to “ARRYTWIRA (also: FITC label, site not given here) [Peptide 2, IVV library-derived 9-amino acid residue peptide, synthesized FITC-labeled]”, in data set [1], the “fluorescence detected in the various pancreatic cancer cells” value is “strong fluorescence was detected”. Further, in data set [2], the “fluorescence detected … from various tissues” value is “fluorescence was hardly detected”. Further, the “absorption ratio (S/N ratio) into BxPC3 cells” value in the data set on BxPC3 cells [3] was “about 6 times”.
